# Test results published in patent US9932314B2, “Pyrazole compounds and their use as T-type calcium channel blockers” (IDORSIA PHARMACEUTICALS LTD, priority 2015, dated 2018).
# Target: T1, voltage-dependent T-type calcium channel subunit alpha-1G (Cav3.2) (Homo sapiens, UniProt O95180)
# T1 construct: expressed in transfected cells; host or cells: HEK293
# Test: FLIPR calcium flux assay, HEK293 cells recombinantly expressing Cav3.2
# Format: cell-based
# Details: Cav3.2-channel, Fluo-4-AM, 3 min incubation, stimulation with 10 mM CaCl2
# Method in brief: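 HEK293 cells stably expressing human Cav3.2 were loaded with Fluo-4-AM. Compounds diluted in TEAC buffer (pH 7.2) were preincubated for 3 min, then Ca2+ entry was triggered by 10 mM final CaCl2. Inhibition curves were fitted sigmoidally to the area under the fluorescence trace.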
# T1 sequence (O95180 whole entry): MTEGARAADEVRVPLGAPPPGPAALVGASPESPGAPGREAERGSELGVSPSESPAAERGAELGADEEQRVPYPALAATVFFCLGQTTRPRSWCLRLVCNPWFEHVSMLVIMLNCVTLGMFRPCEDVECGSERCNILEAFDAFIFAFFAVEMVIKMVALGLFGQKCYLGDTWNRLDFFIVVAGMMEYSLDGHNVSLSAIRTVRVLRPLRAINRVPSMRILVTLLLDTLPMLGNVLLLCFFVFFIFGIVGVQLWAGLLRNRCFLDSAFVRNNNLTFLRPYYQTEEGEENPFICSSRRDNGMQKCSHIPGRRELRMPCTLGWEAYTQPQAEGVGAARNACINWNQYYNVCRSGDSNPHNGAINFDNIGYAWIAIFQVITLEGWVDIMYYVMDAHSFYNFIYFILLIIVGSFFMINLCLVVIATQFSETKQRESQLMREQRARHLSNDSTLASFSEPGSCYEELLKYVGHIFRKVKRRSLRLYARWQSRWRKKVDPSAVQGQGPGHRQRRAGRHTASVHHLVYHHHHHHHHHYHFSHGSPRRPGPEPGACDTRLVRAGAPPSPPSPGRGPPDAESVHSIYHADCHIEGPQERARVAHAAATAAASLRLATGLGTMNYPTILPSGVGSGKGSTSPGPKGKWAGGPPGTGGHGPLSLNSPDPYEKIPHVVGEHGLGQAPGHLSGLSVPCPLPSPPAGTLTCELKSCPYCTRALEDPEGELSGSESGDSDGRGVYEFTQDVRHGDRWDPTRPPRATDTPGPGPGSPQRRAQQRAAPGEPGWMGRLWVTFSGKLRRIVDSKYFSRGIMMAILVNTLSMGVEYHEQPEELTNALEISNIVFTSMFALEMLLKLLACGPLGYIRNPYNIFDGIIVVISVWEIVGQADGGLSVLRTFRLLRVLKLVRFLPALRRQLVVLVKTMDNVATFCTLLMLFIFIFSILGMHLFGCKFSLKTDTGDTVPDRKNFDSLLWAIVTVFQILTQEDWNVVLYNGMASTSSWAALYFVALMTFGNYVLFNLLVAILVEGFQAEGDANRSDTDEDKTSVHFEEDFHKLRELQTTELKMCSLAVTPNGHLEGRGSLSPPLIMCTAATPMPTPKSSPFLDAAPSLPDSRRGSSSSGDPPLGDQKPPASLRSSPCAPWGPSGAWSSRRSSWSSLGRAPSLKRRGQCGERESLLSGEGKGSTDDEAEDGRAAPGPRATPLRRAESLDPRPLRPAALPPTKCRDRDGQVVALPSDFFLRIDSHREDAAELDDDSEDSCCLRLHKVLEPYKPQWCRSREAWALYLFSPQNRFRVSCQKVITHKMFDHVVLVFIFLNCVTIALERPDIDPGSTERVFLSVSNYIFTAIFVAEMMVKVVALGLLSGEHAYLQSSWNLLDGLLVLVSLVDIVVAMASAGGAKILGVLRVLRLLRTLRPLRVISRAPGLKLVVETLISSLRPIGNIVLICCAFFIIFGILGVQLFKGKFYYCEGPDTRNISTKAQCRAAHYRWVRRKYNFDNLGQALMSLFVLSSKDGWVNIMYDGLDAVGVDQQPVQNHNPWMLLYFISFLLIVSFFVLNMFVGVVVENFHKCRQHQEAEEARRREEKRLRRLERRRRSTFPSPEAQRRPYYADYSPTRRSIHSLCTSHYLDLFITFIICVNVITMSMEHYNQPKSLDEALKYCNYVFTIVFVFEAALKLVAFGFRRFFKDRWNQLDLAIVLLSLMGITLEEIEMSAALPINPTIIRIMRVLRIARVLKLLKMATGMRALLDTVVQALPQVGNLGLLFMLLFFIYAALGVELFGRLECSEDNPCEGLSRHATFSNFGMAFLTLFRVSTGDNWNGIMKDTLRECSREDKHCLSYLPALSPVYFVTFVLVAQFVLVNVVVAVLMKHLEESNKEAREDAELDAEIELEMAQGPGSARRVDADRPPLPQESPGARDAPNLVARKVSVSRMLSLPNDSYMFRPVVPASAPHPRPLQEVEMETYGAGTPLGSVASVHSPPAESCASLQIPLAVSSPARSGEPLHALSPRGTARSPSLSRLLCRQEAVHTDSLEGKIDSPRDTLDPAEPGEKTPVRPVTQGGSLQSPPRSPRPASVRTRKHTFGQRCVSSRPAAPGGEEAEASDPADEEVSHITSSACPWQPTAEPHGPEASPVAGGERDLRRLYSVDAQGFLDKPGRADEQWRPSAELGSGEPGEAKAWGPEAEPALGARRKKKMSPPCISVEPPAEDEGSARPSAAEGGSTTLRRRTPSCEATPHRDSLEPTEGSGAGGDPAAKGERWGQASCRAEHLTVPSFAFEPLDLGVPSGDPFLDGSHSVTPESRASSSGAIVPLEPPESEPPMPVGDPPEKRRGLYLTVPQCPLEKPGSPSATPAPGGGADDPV
row,SMILES,IC50 [nM]
1,"CN(c1ccc(CC(=O)Nc2ccn(Cc3ccc(F)cc3)n2)cn1)C1CC1 [Example 167, 2-[6-(Cyclopropyl(methyl)amino)-pyridin-3-yl]-N-[1-(4-fluoro-benzyl)-1H-pyrazol-3-yl]-acetamide]",21
2,"O=C(Cc1ccc(OC2CCC2)cc1)Nc1ccn(Cc2ccc(F)cn2)n1 [Example 200, 2-(4-Cyclobutoxy-phenyl)-N-[1-(5-fluoro-pyridin-2-ylmethyl)-1H-pyrazol-3-yl]-acetamide]",67
3,"Cc1cc(CC(=O)Nc2ccn(Cc3ccc(F)c(C#N)n3)n2)cnc1OCC(F)(F)F [Example 418, N-[1-(6-Cyano-5-fluoro-pyridin-2-ylmethyl)-1H-pyrazol-3-yl]-2-[5-methyl-6-(2,2,2-trifluoro-ethoxy)-pyridin-3-yl]-acetamide]",94
4,"O=C(Cc1ccc(N2CCC2)cc1)Nc1ccn(Cc2ccc(F)cc2)n1 [Example 53, 2-(4-Azetidin-1-yl-phenyl)-N-[1-(4-fluoro-benzyl)-1H-pyrazol-3-yl]-acetamide]",6.7
5,"CCc1ccc(Cn2ccc(NC(=O)Cc3ccc(C(C)C)cc3)n2)nc1 [Example 100, N-[1-(5-Ethyl-pyridin-2-ylmethyl)-1H-pyrazol-3-yl]-2-(4-isopropyl-phenyl)-acetamide]",60
6,"N#Cc1cc(Cn2ccc(NC(=O)Cc3ccc(C(F)(F)F)cc3)n2)ccc1F [Example 342, N-[1-(3-Cyano-4-fluoro-benzyl)-1H-pyrazol-3-yl]-2-(4-trifluoromethyl-phenyl)-acetamide]",40
7,"COc1ccc(Cn2ccc(NC(=O)Cc3ccc(OC4CC4)cc3)n2)cc1 [Example 65, 2-(4-Cyclopropoxy-phenyl)-N-[1-(4-methoxy-benzyl)-1H-pyrazol-3-yl]-acetamide]",74
8,"CC1(c2ccc(CC(=O)Nc3ccn(Cc4ccc(F)c(C#N)c4)n3)cc2)COC1 [Example 316, N-[1-(3-Cyano-4-fluoro-benzyl)-1H-pyrazol-3-yl]-2-[4-(3-methyl-oxetan-3-yl)-phenyl]-acetamide]",36
9,"Cn1ccc2cc(CC(=O)Nc3ccn(Cc4ccc(C#N)cc4)n3)cnc21 [Example 214, N-[1-(4-Cyano-benzyl)-1H-pyrazol-3-yl]-2-(1-methyl-1H-pyrrolo[2,3-b]pyridin-5-yl)-acetamide]",164
10,"N#Cc1ccc(Cn2ccc(NC(=O)Cc3ccc(OC4CC(F)(F)C4)cc3)n2)cc1F [Example 261, N-[1-(4-Cyano-3-fluoro-benzyl)-1H-pyrazol-3-yl]-2-[4-(3,3-difluoro-cyclobutoxy)-phenyl]-acetamide]",15
11,"Cn1cc(C2CCC2)c2cc(CC(=O)Nc3ccn(Cc4ccc(C#N)cn4)n3)ccc21 [Example 323, N-[1-(5-Cyano-pyridin-2-ylmethyl)-1H-pyrazol-3-yl]-2-(3-cyclobutyl-1-methyl-1H-indol-5-yl)-acetamide]",36
12,"N#Cc1cc(Cn2ccc(NC(=O)Cc3ccc(C4(C#N)CC4)cc3)n2)ccc1F [Example 355, 2-[4-(1-Cyano-cyclopropyl)-phenyl]-N-[1-(3-cyano-4-fluoro-benzyl)-1H-pyrazol-3-yl]-acetamide]",26
13,"CC(C)c1ccc(CC(=O)Nc2ccn(Cc3ccc(C#N)c(OCC(F)(F)F)n3)n2)cc1 [Example 117, N-{1-[5-Cyano-6-(2,2,2-trifluoro-ethoxy)-pyridin-2-ylmethyl]-1H-pyrazol-3-yl}-2-(4-isopropyl-phenyl)-acetamide]",332
14,"N#Cc1ccc(Cn2ccc(NC(=O)Cc3ccc(OCC4(F)COC4)cc3)n2)cc1F [Example 257, N-[1-(4-Cyano-3-fluoro-benzyl)-1H-pyrazol-3-yl]-2-[4-(3-fluoro-oxetan-3-ylmethoxy)-phenyl]-acetamide]",76
15,"O=C(Cc1ccc(N2CCC(F)(F)C2)nc1)Nc1ccn(Cc2ccc(F)cc2)n1 [Example 122, 2-[6-(3,3-Difluoro-pyrrolidin-1-yl)-pyridin-3-yl]-N-[1-(4-fluoro-benzyl)-1H-pyrazol-3-yl]-acetamide]",19
16,"N#Cc1c(F)cc(Cn2ccc(NC(=O)Cc3ccc(OCC4COC4)cc3)n2)cc1F [Example 360, N-[1-(4-Cyano-3,5-difluoro-benzyl)-1H-pyrazol-3-yl]-2-[4-(oxetan-3-ylmethoxy)-phenyl]-acetamide]",360
17,"Cc1ccc(CC(=O)Nc2ccn(Cc3ccc(C#N)cn3)n2)cc1OCC(F)(F)F [Example 381, N-[1-(5-Cyano-pyridin-2-ylmethyl)-1H-pyrazol-3-yl]-2-[4-methyl-3-(2,2,2-trifluoro-ethoxy)-phenyl]-acetamide]",54
18,"Cc1cncnc1-c1ccc(CC(=O)Nc2ccn(Cc3ccc(F)cc3)n2)cc1 [Example 92, N-[1-(4-Fluoro-benzyl)-1H-pyrazol-3-yl]-2-[4-(5-methyl-pyrimidin-4-yl)-phenyl]-acetamide]",48
19,"COC(C)c1ccc(CC(=O)Nc2ccn(Cc3ccc(F)c(C#N)c3)n2)cc1 (racemic) [Example 319, rac-N-[1-(3-Cyano-4-fluoro-benzyl)-1H-pyrazol-3-yl]-2-[4-(1-methoxy-ethyl)-phenyl]-acetamide]",66

row,SMILES,IC50 [nM]
1,"Cc1cc(CC(=O)Nc2ccn(Cc3cc(C#N)c(F)cn3)n2)ccc1OCC(F)(F)F [Example 399, N-[1-(4-Cyano-5-fluoro-pyridin-2-ylmethyl)-1H-pyrazol-3-yl]-2-[3-methyl-4-(2,2,2-trifluoro-ethoxy)-phenyl]-acetamide]",60
2,"CC(C)(C)c1ccc(CC(=O)Nc2ccn(Cc3ccc(C#N)c(F)c3)n2)cc1 [Example 264, 2-(4-tert-Butyl-phenyl)-N-[1-(4-cyano-3-fluoro-benzyl)-1H-pyrazol-3-yl]-acetamide]",5.4
3,"COC1(c2ccc(CC(=O)Nc3ccn(Cc4ccc(F)c(F)c4)n3)cc2)COC1 [Example 231, N-[1-(3,4-Difluoro-benzyl)-1H-pyrazol-3-yl]-2-[4-(3-methoxy-oxetan-3-yl)-phenyl]-acetamide]",21
4,"CCc1cc(CC(=O)Nc2ccn(Cc3cc(C#N)c(F)cn3)n2)ccc1OCC(F)(F)F [Example 413, N-[1-(4-Cyano-5-fluoro-pyridin-2-ylmethyl)-1H-pyrazol-3-yl]-2-[3-ethyl-4-(2,2,2-trifluoro-ethoxy)-phenyl]-acetamide]",30
5,"Cn1cnc2cc(CC(=O)Nc3ccn(Cc4ccc(F)c(F)c4)n3)ccc21 [Example 230, N-[1-(3,4-Difluoro-benzyl)-1H-pyrazol-3-yl]-2-(1-methyl-1H-benzoimidazol-5-yl)-acetamide]",255
6,"CC1(COc2ccc(CC(=O)Nc3ccn(Cc4ccc(F)c(F)c4)n3)cc2)CC(F)(F)C1 [Example 243, N-[1-(3,4-Difluoro-benzyl)-1H-pyrazol-3-yl]-2-[4-(3,3-difluoro-1-methyl-cyclobutylmethoxy)-phenyl]-acetamide]",37
7,"CCN(CC)c1ccc(CC(=O)Nc2ccn(Cc3ccc(F)cc3)n2)cn1 [Example 190, 2-(6-Diethylamino-pyridin-3-yl)-N-[1-(4-fluoro-benzyl)-1H-pyrazol-3-yl]-acetamide]",21
8,"N#Cc1ccc(Cn2ccc(NC(=O)Cc3ccc(N4CC[C@H](F)C4)cc3)n2)nc1 [Example 90, N-[1-(5-Cyano-pyridin-2-ylmethyl)-1H-pyrazol-3-yl]-2-[4-((S)-3-fluoro-pyrrolidin-1-yl)-phenyl]-acetamide]",75
9,"COc1ccc(Cn2ccc(NC(=O)Cc3ccc(N(C)C)nc3)n2)cc1 [Example 14, 2-(6-Dimethylamino-pyridin-3-yl)-N-[1-(4-methoxy-benzyl)-1H-pyrazol-3-yl]-acetamide]",650
10,"COCCN(C)c1ccc(CC(=O)Nc2ccn(Cc3ccc(OC)cc3)n2)cn1 [Example 183, N-[1-(4-Methoxy-benzyl)-1H-pyrazol-3-yl]-2-{6-[(2-methoxy-ethyl)-methyl-amino]-pyridin-3-yl}-acetamide]",530
11,"CC1(C)C(=O)Nc2ccc(CC(=O)Nc3ccn(Cc4ccc(F)c(F)c4)n3)cc21 [Example 228, N-[1-(3,4-Difluoro-benzyl)-1H-pyrazol-3-yl]-2-(3,3-dimethyl-2-oxo-2,3-dihydro-1H-indol-5-yl)-acetamide]",44
12,"N#Cc1c(F)cc(Cn2ccc(NC(=O)Cc3ccc(N4CCCC4)nc3)n2)cc1F [Example 351, N-[1-(4-Cyano-3,5-difluoro-benzyl)-1H-pyrazol-3-yl]-2-(6-pyrrolidin-1-yl-pyridin-3-yl)-acetamide]",65
13,"CCN(CC)c1ccc(CC(=O)Nc2ccn(Cc3ccc(OC)cc3)n2)cc1 [Example 112, 2-(4-Diethylamino-phenyl)-N-[1-(4-methoxy-benzyl)-1H-pyrazol-3-yl]-acetamide]",21
14,"COc1ccc(Cn2ccc(NC(=O)Cc3ccc(OCC(F)(F)F)cc3)n2)cc1 [Example 45, N-[1-(4-Methoxy-benzyl)-1H-pyrazol-3-yl]-2-[4-(2,2,2-trifluoro-ethoxy)-phenyl]-acetamide]",33
15,"CC1(COc2ccc(CC(=O)Nc3ccn(Cc4ccc(F)c(C#N)c4)n3)cc2)CC(F)(F)C1 [Example 311, N-[1-(3-Cyano-4-fluoro-benzyl)-1H-pyrazol-3-yl]-2-[4-(3,3-difluoro-1-methyl-cyclobutylmethoxy)-phenyl]-acetamide]",81
16,"N#Cc1ccc(Cn2ccc(NC(=O)Cc3ccc(OCC4CC(F)(F)C4)cc3)n2)nc1 [Example 304, N-[1-(5-Cyano-pyridin-2-ylmethyl)-1H-pyrazol-3yl]-2-[4-(3,3-difluoro-cyclobutylmethoxy)-phenyl]-acetamide]",118
17,"O=C(Cc1ccc(C2CC2)nc1)Nc1ccn(Cc2ccc(F)c(Cl)c2)n1 [Example 194, N-[1-(3-Chloro-4-fluoro-benzyl)-1H-pyrazol-3-yl]-2-(6-cyclopropyl-pyridin-3-yl)-acetamide]",61
18,"O=C(Cc1ccc2nccnc2c1)Nc1ccn(Cc2ccc(F)c(F)c2)n1 [Example 205, N-[1-(3,4-Difluoro-benzyl)-1H-pyrazol-3-yl]-2-quinoxalin-6-yl-acetamide]",288
